Assays:
[1] = Cytotoxicity against human 95-D cells after 72 hrs by MTT assay; format: functional, cell-based
[2] = Cytotoxicity against human KB/VCR cells after 72 hrs by MTT assay; format: functional, cell-based
A549 = assay: Cytotoxicity against human A549 cells after 72 hrs by MTT assay; format: functional, cell-based; conditions: A549, 72 h
KB = assay: Cytotoxicity against human KB cells after 72 hrs by MTT assay; format: functional, cell-based
[3] = Anticancer activity against human 95-D cells xenografted in BALB/c mouse assessed as inhibition of tumor growth at 10 mg/kg administered intramuscularly every other day for 20 days measured post last dose; format: functional; conditions: im, 480 h, route intramuscular
Mus musculus [4] = assay: Toxicity in BALB/c mouse xenografted with human 95-D cells assessed as body weight at 10 mg/kg administered intramuscularly every other day for 20 days measured post last dose (reference value: 21.6 +/- 0.6 gm); format: organism-based; design: dose 10 mg/kg, route intramuscular; conditions: in vivo, im, 480 h
[5] = Anticancer activity against human 95-D cells xenografted in BALB/c mouse at 10 mg/kg administered intramuscularly every other day for 20 days measured post last dose relative to control; format: functional; conditions: route intramuscular
Mus musculus [6] = assay: Toxicity in BALB/c mouse xenografted with human 95-D cells assessed as body weight at 50 mg/kg, ig administered 2 to 3 times a week for 20 days measured post last dose (reference value: 21.6 +/- 0.6 gm); format: organism-based; design: dose 50 mg/kg, route intragastric; conditions: in vivo, po, 480 h
[7] = Anticancer activity against human 95-D cells xenografted in BALB/c mouse assessed as inhibition of tumor growth at 50 mg/kg, ig administered 2 to 3 times a week for 20 days measured post last dose; format: functional; conditions: po, 480 h, route intragastric
[8] = Anticancer activity against human 95-D cells xenografted in BALB/c mouse at 50 mg/kg, ig administered 2 to 3 times a week for 20 days measured post last dose relative to control; format: functional; conditions: route intragastric

## COc1cc([C@@H]2c3cc4c(cc3[C@@H](Nc3cccc(CN5CCCCC5)c3)[C@H]3COC(=O)[C@H]23)OCO4)cc(OC)c1O
[1]
  IC50: 0.2 µM
[2]
  IC50: 3.44 µM
A549
  IC50: 0.5 µM
KB
  IC50: 0.97 µM

## COc1cc([C@@H]2c3cc4c(cc3[C@@H](Nc3ccc(CCN5CCCC5)cc3)[C@H]3COC(=O)[C@H]23)OCO4)cc(OC)c1O
[1]
  IC50: 0.036 µM
[2]
  IC50: 1.57 µM
A549
  IC50: 0.24 µM
KB
  IC50: 0.21 µM

## COc1cc([C@@H]2c3cc4c(cc3[C@@H](Nc3ccc(CCN5CCOCC5)cc3)[C@H]3COC(=O)[C@H]23)OCO4)cc(OC)c1O
[1]
  IC50: 11.5 µM
[2]
  IC50: 1.27 µM
A549
  IC50: 1.94 µM
KB
  IC50: 0.78 µM

## CCN(CC)CCc1ccc(N[C@@H]2c3cc4c(cc3[C@@H](c3cc(OC)c(O)c(OC)c3)[C@H]3C(=O)OC[C@@H]32)OCO4)cc1
[1]
  IC50: 9.84 µM
[2]
  IC50: 1.53 µM
A549
  IC50: 0.4 µM
KB
  IC50: 0.45 µM

## COc1cc([C@@H]2c3cc4c(cc3[C@@H](Nc3ccc(CCN5CCCCC5)cc3)[C@H]3COC(=O)[C@H]23)OCO4)cc(OC)c1O
[1]
  IC50: 17.2 µM
[2]
  IC50: 19.1 µM
A549
  IC50: 13.4 µM
KB
  IC50: 4.21 µM

## COc1cc([C@@H]2c3cc4c(cc3[C@@H](Nc3ccc(CCN(C)C)cc3)[C@H]3COC(=O)[C@H]23)OCO4)cc(OC)c1O
[1]
  IC50: 17.1 µM
[2]
  IC50: 3.95 µM
A549
  IC50: 19 µM
KB
  IC50: 2.42 µM

## COc1cc([C@@H]2c3cc4c(cc3[C@@H](Nc3ccc(CCN(C(C)C)C(C)C)cc3)[C@H]3COC(=O)[C@H]23)OCO4)cc(OC)c1O
[1]
  IC50: 10 µM
[2]
  IC50: 2.2 µM
A549
  IC50: 0.49 µM
KB
  IC50: 0.44 µM

## COc1cc([C@@H]2c3cc4c(cc3[C@@H](Nc3cccc(CCN5CCCC5)c3)[C@H]3COC(=O)[C@H]23)OCO4)cc(OC)c1O
[1]
  IC50: 1.17 µM
[2]
  IC50: 1.85 µM
A549
  IC50: 3.91 µM
KB
  IC50: 0.39 µM

## COc1cc([C@@H]2c3cc4c(cc3[C@@H](Nc3cccc(CCN5CCOCC5)c3)[C@H]3COC(=O)[C@H]23)OCO4)cc(OC)c1O
[1]
  IC50: 14.8 µM
[2]
  IC50: 2.09 µM
A549
  IC50: 5.1 µM
KB
  IC50: 0.48 µM

## CCN(CC)CCc1cccc(N[C@@H]2c3cc4c(cc3[C@@H](c3cc(OC)c(O)c(OC)c3)[C@H]3C(=O)OC[C@@H]32)OCO4)c1
[1]
  IC50: 14.6 µM
[2]
  IC50: 3.87 µM
A549
  IC50: 7.49 µM
KB
  IC50: 0.77 µM

## COc1cc([C@@H]2c3cc4c(cc3[C@@H](Nc3cccc(CCN5CCCCC5)c3)[C@H]3COC(=O)[C@H]23)OCO4)cc(OC)c1O
[1]
  IC50: 7.4 µM
[2]
  IC50: 1.78 µM
A549
  IC50: 2.75 µM
KB
  IC50: 0.43 µM

## COc1cc([C@@H]2c3cc4c(cc3[C@@H](Nc3ccc(CC(=O)N5CCCC5)cc3)[C@H]3COC(=O)[C@H]23)OCO4)cc(OC)c1O
[1]
  IC50: > 50 µM
[2]
  IC50: 2.2 µM
A549
  IC50: 15.9 µM
KB
  IC50: 1.52 µM

## COc1cc([C@@H]2c3cc4c(cc3[C@@H](Nc3ccc(CC(=O)N5CCCCC5)cc3)[C@H]3COC(=O)[C@H]23)OCO4)cc(OC)c1O
[1]
  IC50: 25.8 µM
[2]
  IC50: 2.33 µM
A549
  IC50: 5.2 µM
KB
  IC50: 0.4 µM

## CCN(CC)C(=O)Cc1cccc(N[C@@H]2c3cc4c(cc3[C@@H](c3cc(OC)c(O)c(OC)c3)[C@H]3C(=O)OC[C@@H]32)OCO4)c1
[1]
  IC50: > 50 µM
[2]
  IC50: 27.2 µM
A549
  IC50: 4.78 µM
KB
  IC50: 0.42 µM

## COc1cc([C@@H]2c3cc4c(cc3[C@@H](Nc3ccc(OCCO)cc3)[C@H]3COC(=O)[C@H]23)OCO4)cc(OC)c1O
[3]
  inhibition in vivo at 10 mg/kg: 37.5%
[1]
  IC50: 4.13 µM
[2]
  IC50: 6.51 µM
A549
  IC50: 4.54 µM
Mus musculus [4]
  Activity: 17 g
KB
  IC50: 2.88 µM
[5]
  Activity: 45.4%

## COc1cc([C@@H]2c3cc4c(cc3[C@@H](Nc3ccc(COCCO)cc3)[C@H]3COC(=O)[C@H]23)OCO4)cc(OC)c1O
[1]
  IC50: 0.55 µM
[2]
  IC50: 7.39 µM
A549
  IC50: 5.11 µM
KB
  IC50: 3.12 µM

## COc1cc([C@@H]2c3cc4c(cc3[C@@H](Nc3ccc(COCCCO)cc3)[C@H]3COC(=O)[C@H]23)OCO4)cc(OC)c1O
[1]
  IC50: 12 µM
[2]
  IC50: 5.08 µM
A549
  IC50: 7.45 µM
KB
  IC50: 6 µM

## COc1cc([C@@H]2c3cc4c(cc3[C@@H](Nc3ccc(COCCCCO)cc3)[C@H]3COC(=O)[C@H]23)OCO4)cc(OC)c1O
[1]
  IC50: 20.3 µM
[2]
  IC50: 9.55 µM
A549
  IC50: 8.5 µM
KB
  IC50: 6.6 µM

## COc1ccc(C(=O)Nc2ccc(N[C@@H]3c4cc5c(cc4[C@@H](c4cc(OC)c(O)c(OC)c4)[C@H]4C(=O)OC[C@@H]43)OCO5)cc2)cc1
[1]
  IC50: 0.44 µM
[2]
  IC50: 9.28 µM
A549
  IC50: 3.41 µM
KB
  IC50: 6.76 µM

## COc1cc([C@@H]2c3cc4c(cc3[C@@H](Nc3ccc(NC(=O)c5ccc(F)cc5)cc3)[C@H]3COC(=O)[C@H]23)OCO4)cc(OC)c1O
[1]
  IC50: 1.08 µM
[2]
  IC50: 5.31 µM
A549
  IC50: 1.56 µM
KB
  IC50: 2.91 µM

## COc1cc([C@@H]2c3cc4c(cc3[C@@H](Nc3ccc(NC(=O)c5ccc(OC(C)=O)cc5)cc3)[C@H]3COC(=O)[C@H]23)OCO4)cc(OC)c1O
Mus musculus [6]
  Activity: 16.8 g
[7]
  inhibition in vivo at 50 mg/kg: 57.3%
[1]
  IC50: 0.42 µM
[2]
  IC50: 8.48 µM
A549
  IC50: 2.68 µM
[8]
  Activity: 46.3%
KB
  IC50: 1.91 µM

## COc1cc([C@@H]2c3cc4c(cc3[C@@H](Nc3ccc(NC(=O)c5ccc([N+](=O)[O-])cc5)cc3)[C@H]3COC(=O)[C@H]23)OCO4)cc(OC)c1O
[1]
  IC50: 3.41 µM
[2]
  IC50: 13.7 µM
A549
  IC50: 11 µM
KB
  IC50: > 50 µM

## COc1cc([C@@H]2c3cc4c(cc3[C@@H](Nc3ccc(NC(=O)CCc5ccccc5)cc3)[C@H]3COC(=O)[C@H]23)OCO4)cc(OC)c1O
[3]
  inhibition in vivo at 10 mg/kg: 9.2%
[1]
  IC50: 1.15 µM
[2]
  IC50: 3.7 µM
A549
  IC50: 3.31 µM
Mus musculus [4]
  Activity: 20.2 g
KB
  IC50: 6.88 µM
[5]
  Activity: 62.4%

## COc1cc([C@@H]2c3cc4c(cc3[C@@H](Nc3ccc(NC(=O)CCc5ccccc5[N+](=O)[O-])cc3)[C@H]3COC(=O)[C@H]23)OCO4)cc(OC)c1O
[1]
  IC50: 0.41 µM
[2]
  IC50: 5.3 µM
A549
  IC50: 8.43 µM
KB
  IC50: 6.69 µM

## COc1cc([C@@H]2c3cc4c(cc3[C@@H](Nc3ccc(NC(=O)/C=C/c5ccccc5)cc3)[C@H]3COC(=O)[C@H]23)OCO4)cc(OC)c1O
[1]
  IC50: 1.25 µM
[2]
  IC50: 2.8 µM
A549
  IC50: > 50 µM
KB
  IC50: 6.53 µM

## COc1ccc(CCC(=O)Nc2ccc(N[C@@H]3c4cc5c(cc4[C@@H](c4cc(OC)c(O)c(OC)c4)[C@H]4C(=O)OC[C@@H]43)OCO5)cc2)cc1
[1]
  IC50: 1.23 µM
[2]
  IC50: 3.08 µM
A549
  IC50: > 50 µM
KB
  IC50: > 50 µM

## COc1cc([C@@H]2c3cc4c(cc3[C@@H](Nc3ccc(NC(=O)c5ccc(Br)cc5)cc3)[C@H]3COC(=O)[C@H]23)OCO4)cc(OC)c1O
[1]
  IC50: 1.66 µM
[2]
  IC50: 5.72 µM
A549
  IC50: 18.9 µM
KB
  IC50: 8.75 µM

## COc1cc([C@@H]2c3cc4c(cc3[C@@H](Nc3ccc(NC(=O)c5ccc(Cl)cc5)cc3)[C@H]3COC(=O)[C@H]23)OCO4)cc(OC)c1O
[1]
  IC50: 6.56 µM
[2]
  IC50: 13.1 µM
A549
  IC50: 19.5 µM
KB
  IC50: 22.1 µM

## COc1cc([C@@H]2c3cc4c(cc3[C@@H](N(C(=O)c3ccc([N+](=O)[O-])cc3)c3ccc(NC(=O)c5ccc([N+](=O)[O-])cc5)cc3)[C@H]3COC(=O)[C@H]23)OCO4)cc(OC)c1O
[1]
  IC50: 15.7 µM
[2]
  IC50: > 50 µM
A549
  IC50: > 50 µM
KB
  IC50: > 50 µM

## COc1cc([C@@H]2c3cc4c(cc3[C@@H](N(C(=O)c3ccc(Cl)cc3)c3ccc(NC(=O)c5ccc(Cl)cc5)cc3)[C@H]3COC(=O)[C@H]23)OCO4)cc(OC)c1O
[1]
  IC50: 19.6 µM
[2]
  IC50: 14.2 µM
A549
  IC50: > 50 µM
KB
  IC50: > 50 µM

## COc1cc([C@@H]2c3cc4c(cc3[C@@H](O[C@@H]3O[C@@H]5CO[C@@H](C)O[C@H]5[C@H](O)[C@H]3O)[C@H]3COC(=O)[C@H]23)OCO4)cc(OC)c1O [ETOPOSIDE]
[1]
  IC50: 20.2 µM
[2]
  IC50: 83.4 µM
A549
  IC50: 2.56 µM
KB
  IC50: 4.61 µM

From ChEMBL document CHEMBL1649404, “Synthesis and biological evaluation of new 4β-anilino-4'-O-demethyl-4-desoxypodophyllotoxin derivatives as potential antitumor agents” (Eur J Med Chem, 2011)
